Measurements reported in PMC8611036, “An integrated method for optimized identification of effective natural inhibitors against SARS-CoV-2 3CLpro” (Scientific Reports, 2021).
Non-standard residues stand in square brackets, D forms with d. Residues, ends and D or L forms follow the SMILES beside them. Cha = N[C@@H](CC1CCCCC1)C(=O)O

tested on: SARS-CoV 3CLpro; format: biochemical; conditions: not given

Row | Structure (SMILES) | Inact.(<6)/Act.(>=6)
1 | COC(=O)[C@]1(C)CC[C@]2(C)CC[C@]3(C)C4=CC=C5C(=CC(=O)C(O)=C5C)[C@]4(C)CC[C@@]3(C)[C@@H]2C1 [CMP128] | Inact. (key: Inact.(<6); Act.(>=6))

same assay, conditions: activity class by pIC50 threshold 6

Row | Structure (SMILES) | Inact.(<6)/Act.(>=6)
2 | CC(=O)N[C@@H](CO)C(=O)N[C@H](C(=O)N[C@@H](CC1CCCCC1)C(=O)N[C@H](C=O)Cc1c[nH]cn1)C(C)C [CMP218] (Ac-SV[Cha]H-aldehyde) | Act. (Act.(>=6))
3 | COc1cccc(C(=O)Oc2cncc(Cl)c2)c1 [CMP171] | Act. (Act.(>=6))
4 | O=C(Oc1cncc(Cl)c1)c1cccc([N+](=O)[O-])c1 [CMP275] | Act. (Act.(>=6))
5 | O=C(Oc1cncc(Cl)c1)c1ccccc1[N+](=O)[O-] [CMP279] | Act. (Act.(>=6))
6 | O=C[C@H](Cc1c[nH]cn1)NC[C@H]1C[C@@H]2CCCC[C@H]2CN1C(=O)c1ccc(Br)cc1 [CMP263] | Inact. (Inact.(<6))
7 | Cc1cc(C(=O)N[C@@H](C)C(=O)N[C@H](C(=O)N[C@@H](CC(C)C)C(=O)N[C@H](C#N)CCC(N)=O)C(C)C)no1 [CMP228] | Inact. (Inact.(<6))
8 | O=C(Oc1cncc(Cl)c1)c1ccc(Cl)cc1 [CMP165] | Act. (Act.(>=6))
9 | O=C1Nc2ccc(S(=O)(=O)N3CCN(c4ccccn4)CC3)cc2C1=O [CMP239] | Inact. (Inact.(<6))
10 | O=C[C@H](Cc1c[nH]cn1)NC[C@@H]1C[C@H]2CCCC[C@@H]2CN1C(=O)c1cccc(-c2ccccc2)c1 [CMP260] | Inact. (Inact.(<6))
11 | Cn1cnc(C(=O)N(c2ccc(C(C)(C)C)cc2)C(C(=O)NC(C)(C)C)c2cccnc2)c1 (centres unmarked) [CMP206] | Inact. (Inact.(<6))
12 | CCC(C)(C)NC(=O)[C@@H](c1ccn(C)c1)N(C(=O)Cn1nnc2ccccc21)c1ccc(NC(C)=O)cc1 [CMP254] | Inact. (Inact.(<6))
13 | O=C[C@H](Cc1c[nH]cn1)NC[C@@H]1C[C@H]2CCCC[C@@H]2CN1C(=O)c1ccc(F)cc1 [CMP258] | Inact. (Inact.(<6))
14 | Cc1ccc(C(=O)N/C(=C\c2ccc(-c3ccccc3[N+](=O)[O-])o2)C(=O)NCCCN(C)C)cc1 [CMP284] | Inact. (Inact.(<6))
15 | COc1cc(CN2CCN(S(=O)(=O)c3ccc4c(c3)C(=O)C(=O)N4)CC2)cc(OC)c1OC [CMP236] | Inact. (Inact.(<6))
16 | CC(=O)n1nc(SSc2ccccc2[N+](=O)[O-])nc1-c1cccnc1 [CMP272] | Inact. (Inact.(<6))
17 | COC(=O)/C=C/[C@H](C[C@@H]1CCNC1=O)NC(=O)[C@H](CC(C)C)NC(=O)[C@@H](NC(=O)OCc1ccccc1)C(C)C [CMP253] | Inact. (Inact.(<6))
18 | CN1C(=O)C(=O)c2cc(S(=O)(=O)N3CCN(CCc4ccccc4)CC3)ccc21 [CMP244] | Inact. (Inact.(<6))
19 | O=C[C@H](Cc1c[nH]cn1)NC[C@@H]1C[C@H]2CCCC[C@@H]2CN1C(=O)c1ccccc1 [CMP262] | Inact. (Inact.(<6))
20 | O=c1c(O)c(-c2ccc(O)c(O)c2)oc2cc(O)cc(O)c12 [CMP151] | Inact. (Inact.(<6))
21 | Cc1coc2c1C(=O)C(=O)c1c-2ccc2c(C)cccc12 [CMP127] | Inact. (Inact.(<6))
22 | CC(=O)N[C@@H](C)C(=O)N[C@H](C(=O)N[C@@H](CC1CCCCC1)C(=O)N[C@H](C=O)Cc1c[nH]cn1)C(C)C [CMP219] (Ac-AV[Cha]H-aldehyde) | Act. (Act.(>=6))
23 | O=C[C@H](Cc1cnc[nH]1)NC[C@@H]1C[C@H]2CCCC[C@@H]2CN1C(=O)c1ccc(Br)cc1 [CMP256] | Inact. (Inact.(<6))

Row | Structure (SMILES) | Inact.(<6)/Act.(>=6)
24 | CC(C)C(=O)Nc1ccc(N(Cc2ccsc2)C(=O)Cn2nnc3ccccc32)cc1 [CMP198] | Inact. (Inact.(<6))
25 | O=C(Sc1nnc(C(F)(F)F)[nH]1)c1ccc(C#Cc2ccccc2)o1 [CMP143] | Inact. (Inact.(<6))
26 | CC1CC(C)CN(S(=O)(=O)c2ccc3c(c2)C(=O)C(=O)N3C)C1 (centres unmarked) [CMP250] | Inact. (Inact.(<6))
27 | Cc1nc(C)c(C(=O)C2=C(O)C(=O)N(CCCN3CCOCC3)C2c2cccc([N+](=O)[O-])c2)s1 (centres unmarked) [CMP289] | Inact. (Inact.(<6))
28 | COc1ncccc1-c1ccc(N(Cc2ccsc2)C(=O)Cn2nnc3ccccc32)cc1 [CMP225] | Act. (Act.(>=6))
29 | CN1CCN(S(=O)(=O)c2ccc3c(c2)C(=O)C(=O)N3Cc2ccccc2)CC1 [CMP242] | Inact. (Inact.(<6))
30 | O=C(Oc1cncc(Br)c1)c1cccs1 [CMP232] | Act. (Act.(>=6))
31 | CC1CCN(S(=O)(=O)c2ccc3c(c2)C(=O)C(=O)N3Cc2ccc3ccccc3c2)CC1 [CMP249] | Inact. (Inact.(<6))
32 | Cc1cc(S(=O)(=O)c2c([N+](=O)[O-])cc(C(F)(F)F)cc2[N+](=O)[O-])c(Cl)cc1Cl [CMP288] | Act. (Act.(>=6))
33 | COc1cc(/C=C/C(=O)/C=C(O)/C=C/c2ccc(O)c(OC)c2)ccc1O [CMP156] | Inact. (Inact.(<6))
34 | CC(C)(C)NC(=O)C(c1cccnc1)N(C(=O)c1ncco1)c1ccc(C(C)(C)C)cc1 (centres unmarked) [CMP202] | Inact. (Inact.(<6))
35 | O=[N+]([O-])c1ccccc1SSc1nccs1 [CMP266] | Inact. (Inact.(<6))
36 | C=C1CC[C@H]2[C@](C)(CO)CCC[C@]2(C)[C@H]1CC/C(C)=C\CO [CMP209] | Inact. (Inact.(<6))
37 | O=C(Cn1nnc2ccccc21)N(Cc1ccsc1)c1ccc(-c2cccnc2)cc1 [CMP224] | Act. (Act.(>=6))
38 | CC(C)C[C@H](NC(=O)[C@@H](NC(=O)[C@H](C)NC(=O)OC(C)(C)C)C(C)C)C(=O)N[C@H](C#N)CCC(N)=O [CMP229] | Inact. (Inact.(<6))
39 | O=C(Oc1cncc(Cl)c1)c1ccc(-c2ccc(Cl)cc2[N+](=O)[O-])o1 [CMP280] | Act. (Act.(>=6))
40 | CC1CCN(S(=O)(=O)c2ccc3c(c2)C(=O)C(=O)N3C)CC1 [CMP247] | Inact. (Inact.(<6))
41 | O=C(Oc1cncc(Cl)c1)c1ccc(-c2cccc([N+](=O)[O-])c2)o1 [CMP278] | Act. (Act.(>=6))
42 | O=C(Cn1nnc2ccccc21)N(Cc1ccsc1)c1ccc(NCc2ccccc2)cc1 [CMP221] | Inact. (Inact.(<6))
43 | COc1ccc2c(c1)CCC1C2=NN(C(C)=O)C1c1cccc(I)c1 (centres unmarked) [CMP116] | Inact. (Inact.(<6))
44 | CC(C)c1cc2c(cc1O)[C@@]1(C)CC[C@H](O)C(C)(C)[C@@H]1CC2 [CMP163] | Inact. (Inact.(<6))
45 | COc1ncc(-c2ccc(N(Cc3ccsc3)C(=O)Cn3nnc4ccccc43)cc2)cn1 [CMP222] | Inact. (Inact.(<6))

Row | Structure (SMILES) | Inact.(<6)/Act.(>=6)
46 | CC(C)c1cc2c(cc1O)[C@@]1(C)CCC[C@@](C)(C=O)[C@@H]1CC2 [CMP208] | Inact. (Inact.(<6))
47 | CCN(CC)c1ccc(C(=O)On2nnc3ccccc32)cc1 [CMP164] | Inact. (Inact.(<6))
48 | O=C(Oc1cncc(Br)c1)c1ccco1 [CMP276] | Act. (Act.(>=6))
49 | O=C(Oc1cncc(Cl)c1)c1ccc(-c2ccc([N+](=O)[O-])cc2)o1 [CMP282] | Act. (Act.(>=6))
50 | C=C(CCSc1ccccc1NC(=O)/C=C/c1ccccc1)OC [CMP107] | Inact. (Inact.(<6))
51 | CC(C)(C)NC(=O)C(c1cccnc1)N(C(=O)c1cnco1)c1ccc(C(C)(C)C)cc1 (centres unmarked) [CMP188] | Inact. (Inact.(<6))
52 | CC(C)C[C@H](NC(=O)[C@@H](NC(=O)[C@H](C)NC(=O)OCc1ccccc1)C(C)C)C(=O)N[C@H](C#N)CCC(N)=O [CMP230] | Inact. (Inact.(<6))
53 | O=[N+]([O-])c1cc(C(F)(F)F)ccc1S(=O)(=O)c1ccc(Cl)cc1 [CMP287] | Inact. (Inact.(<6))
54 | CC(C)(C)NC(=O)C(c1cnccn1)N(C(=O)c1ccco1)c1ccc(C(C)(C)C)cc1 (centres unmarked) [CMP204] | Inact. (Inact.(<6))
55 | O=C1C(=O)N(Cc2ccc3ccccc3c2)c2ccc(S(=O)(=O)N3CCOCC3)cc21 [CMP246] | Inact. (Inact.(<6))
56 | O=C[C@H](Cc1c[nH]cn1)NC[C@@H]1C[C@H]2CCCC[C@@H]2CN1C(=O)c1ccccc1-c1ccccc1 [CMP261] | Inact. (Inact.(<6))
57 | CC(C)(C)NC(=O)C(c1ccnnc1)N(C(=O)c1ccco1)c1ccc(C(C)(C)C)cc1 (centres unmarked) [CMP203] | Inact. (Inact.(<6))
58 | CC1CC(C)CN(S(=O)(=O)c2ccc3c(c2)C(=O)C(=O)N3Cc2ccccc2)C1 (centres unmarked) [CMP251] | Inact. (Inact.(<6))
59 | O=C1Nc2ccc(S(=O)(=O)N3CCN(C(=O)c4ccco4)CC3)cc2C1=O [CMP238] | Inact. (Inact.(<6))
60 | O=C[C@H](Cc1cnc[nH]1)NC[C@@H]1C[C@H]2CCCC[C@@H]2CN1C(=O)c1ccc(-c2ccccc2)cc1 [CMP259] | Inact. (Inact.(<6))
61 | O=C1Nc2ccc(S(=O)(=O)N3CCN(CCc4ccccc4)CC3)cc2C1=O [CMP237] | Inact. (Inact.(<6))
62 | CC1CC(C)CN(S(=O)(=O)c2ccc3c(c2)C(=O)C(=O)N3)C1 (centres unmarked) [CMP255] | Inact. (Inact.(<6))
63 | CC1=CC[C@]2(C)CC[C@]3(C)C4=CC=C5C(=CC(=O)C(O)=C5C)[C@]4(C)CC[C@@]3(C)[C@@H]2C1 [CMP200] | Inact. (Inact.(<6))
64 | COC(=O)c1nc(SSc2ccccc2[N+](=O)[O-])[nH]c1C [CMP269] | Inact. (Inact.(<6))
65 | CC(=O)Nc1cnc(SSc2ccc(Br)cc2)s1 [CMP23, reference compound] | Inact. (Inact.(<6))
